{"source": "patent US20150336881A1", "about": "“AMIDE COMPOUND AND USE THEREOF FOR PEST CONTROL” (Sumitomo Chemical Company, Limited, priority 2012, published 2015)", "data": [{"test_system": "Musca domestica", "test": "Test Example 8: treated filter paper with sucrose bait, Musca domestica", "format": "in vivo", "conditions": "0.7 ml on filter paper, female imagoes of Musca domestica, after 24 hours", "experimental": "(§1) Each of formulations of Compounds of Present Invention 1 to 5, 10, 18, 19, 25, 26, 60 and 68 and Intermediate Compound M6-1 as obtained in Formulation Example 5 was diluted with water, so as to have a concentration of the active ingredient of 500 ppm, to prepare a diluted liquid for test.\n(§2) A filter paper having a diameter of 5.5 cm was spread on the bottom of a polyethylene cup having the same diameter and 0.7 ml of the diluted liquid for test was added dropwise onto the filter paper, and 30 mg of sucrose was uniformly placed as bait. Into the polyethylene cup, 10 female imagoes of Musca domestica were released, and the cup was sealed with a lid. After 24 hours, the life and death of Musca domestica was examined, and the mortality was calculated.", "units": {"mortality at 500 ppm": "%"}, "values": [{"compound": "CCSc1cc(C(F)(F)F)ccc1C(=O)Nc1ccc(C(F)(F)F)cc1", "note": "[Intermediate Compound M6-1, 2-ethylsulfanyl-4-trifluoromethyl-N-(4-trifluoromethyl-phenyl)-benzamide]", "mortality at 500 ppm": 100}]}, {"test_system": "Adoxophyes orana fasciata", "test": "Test Example 7: sprayed apple tree, Adoxophyes orana fasciata larvae released", "conditions": "in vivo", "experimental": "as §1, with “The” for “Each of”, “8 to 14,” for “10,”, “54, 55, 60, 68 to 74, 76 to 78, 85, 86, 88” for “60”, “90” for “68”, “Compounds M6-8 to M6-13” for “Compound M6-1”, “were” for “was”\nOn the other hand, an apple tree was planted in a plastic cup, and grown until the seventh-eighth true leaf was spread. To the apple tree was sprayed in an amount of 20 mL/cup of the diluted liquid for test. After the drug solution was dried, 60 first-instar Adoxophyes orana fasciata were released, and the plastic cup the bottom of which was cut off and on which a filter paper was put was upside-down and covered. After 7 days, the number of surviving insects was counted, and the mortality was calculated according to the following equation:\nMortality (%)=(Number of dead insects/Number of tested insects)×100.", "units": {"mortality": "%"}, "values": [{"compound": "CCSc1cc(C(F)(F)F)ccc1C(=O)Nc1ccc(C(F)(F)F)cc1", "note": "[Intermediate Compound M6-1, 2-ethylsulfanyl-4-trifluoromethyl-N-(4-trifluoromethyl-phenyl)-benzamide]", "mortality": 100}, {"compound": "CCS(=O)(=O)c1cc(C(F)(F)F)ccc1C(=O)N(C)c1ccc(C(F)(F)C(F)(F)F)cc1", "note": "[compound 10]", "mortality": 100}, {"compound": "CCSc1ccccc1C(=O)N(C)c1ccc(C(F)(F)C(F)(F)F)cc1", "note": "[compound 18]", "mortality": 100}, {"compound": "CCSc1ccccc1C(=O)N(C)c1ccc(SC(F)(F)F)cc1", "note": "[compound 19]", "mortality": 100}, {"compound": "CCS(=O)(=O)c1ccccc1C(=O)N(C)c1ccc(C(F)(F)C(F)(F)F)cc1", "note": "[compound 25]", "mortality": 100}, {"compound": "CCS(=O)(=O)c1ccccc1C(=O)N(C)c1ccc(SC(F)(F)F)cc1", "note": "[compound 26]", "mortality": 100}, {"compound": "CCSc1cc(C(F)(F)F)ccc1C(=O)N(C)c1ccc(OC(F)(F)F)c(Br)c1", "note": "[compound 60]", "mortality": 100}, {"compound": "CCSc1cc(C(F)(F)F)ccc1C(=O)N(C)c1ccc(C(F)(F)F)c(Cl)c1", "note": "[compound 68]", "mortality": 100}]}, {"test_system": "Blattella germanica", "test": "Test Example 9: treated filter paper with sucrose bait, Blattella germanica", "format": "in vivo", "conditions": "500 ppm, 0.7 ml on filter paper, male imagoes of Blattella germanica, after 6 days", "experimental": "The formulations of Compounds of Present Invention 3, 10 and 11 as obtained in Formulation Example 5 were diluted with water, so as to have a concentration of the active ingredient of 500 ppm, to prepare a diluted liquid for test.\nas §2, with “2 male” for “10 female”, “Blattella germanica” for “Musca domestica”, “6 days,” for “24 hours,”", "units": {"mortality": "%"}, "values": [{"compound": "CCS(=O)(=O)c1cc(C(F)(F)F)ccc1C(=O)N(C)c1ccc(C(F)(F)C(F)(F)F)cc1", "note": "[compound 10]", "mortality": 100}, {"compound": "CCS(=O)(=O)c1cc(C(F)(F)F)ccc1C(=O)N(C)c1ccc(SC(F)(F)F)cc1", "note": "[compound 11]", "mortality": 100}]}, {"test_system": "Culex pipiens pallens", "test": "Test Example 10: Culex pipiens pallens larvae in treated water", "format": "in vivo", "conditions": "24 h; active ingredient concentration 3.5 ppm in water, last-instar larvae of Culex pipiens pallens, one day later", "experimental": "The formulations of Compounds of Present Invention 1 to 5, 8 to 11, 13, 18, 19, 25, 26, 44, 53 to 55, 59, 60, 68 to 74, 78, 86 to 88 and 90 and Intermediate Compounds M6-3, M6-4, M6-11, M6-12 and M6-23 as obtained in Formulation Example 5 were diluted with water, so as to have a concentration of the active ingredient of 500 ppm, to prepare a diluted liquid for test.\n0.7 ml of the diluted liquid for test was added to 100 ml of ion-exchanged water (active ingredient concentration: 3.5 ppm). 20 last-instar larvae of Culex pipiens pallens were released into the solution. One day later, the life and death of the Culex pipiens pallens was examined, and the mortality of the pest was calculated.", "units": {"mortality at 3.5 ppm": "%"}, "values": [{"compound": "CCSc1cc(C(F)(F)F)ccc1C(=O)Nc1ccc(C(F)(F)C(F)(F)F)cc1", "note": "[Intermediate Compound M6-3, 2-ethylsulfanyl-N-(4-pentafluoroethyl-phenyl)-4-trifluoromethyl-benzamide]", "mortality at 3.5 ppm": "≥ 95"}, {"compound": "CCSc1cc(C(F)(F)F)ccc1C(=O)Nc1ccc(SC(F)(F)F)cc1", "note": "[Intermediate Compound M6-4, 2-ethylsulfanyl-N-(4-trifluoromethylsulfanyl-phenyl)-4-trifluoromethyl-benzamide]", "mortality at 3.5 ppm": "≥ 95"}]}]}
